The supplement of paper PMC10307832

Assays:
Test in all cases: relative viability (nuclei count vs DMSO), 5 days (fraction); higher = more cells survive
Tanzisertib + Bortezomib = compound: O[C@H]1CC[C@H](Nc2ncc3nc(Nc4c(F)cc(F)cc4F)n([C@H]4CCOC4)c3n2)CC1 [Tanzisertib] + CC(C)C[C@H](NC(=O)[C@H](Cc1ccccc1)NC(=O)c1cnccn1)B(O)O [Bortezomib] (partner 0.002 µM)
Summary of the method: (§1)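 Dosing by pin tool came one day after lung cancer cell lines were seeded in 1536-well plates, using either one drug or a fixed anchor-drug dose plus five library-drug doses (not always all listed) in √10 steps. After 5 days, nuclei were counted on 4× images. Relative viability is treated-well nuclei count divided by vehicle-well nuclei count, and values are medians of duplicate plates.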

[1] = compound: C[C@@H](N)c1ccc(C(=O)Nc2ccnc3[nH]ccc23)cc1 + Nc1ncn([C@H]2C[C@H](O)[C@@H](CO)O2)c(=O)n1 [Decitabine] (partner 2 µM)
Summary of the method: as §1

[2] = compound: C1CNCCC1C2=CC(=NN2)C3=CC=NC=C3 + CCNC(=O)c1noc(-c2cc(C(C)C)c(O)cc2O)c1-c1ccc(CN2CCOCC2)cc1 [Luminespib] (partner 0.01 µM)
Summary of the method: as §1

[3] = compound: C[C@@H](N)c1ccc(C(=O)Nc2ccnc3[nH]ccc23)cc1 + O=C(CCCCCCC(=O)Nc1ccccc1)NO [Vorinostat] (partner 1 µM)
Summary of the method: as §1

Row | Cell Line | relative viability (Tanzisertib + Bortezomib; first compound 0.08 µM) | relative viability (Tanzisertib + Bortezomib; first compound 0.253 µM) | relative viability (Tanzisertib + Bortezomib; first compound 0.8 µM) | relative viability (Tanzisertib + Bortezomib; first compound 2.53 µM) | relative viability (Tanzisertib + Bortezomib; first compound 8 µM) | relative viability ([1]; first compound 0.04 µM) | relative viability ([1]; first compound 0.1265 µM) | relative viability ([1]; first compound 0.4 µM) | relative viability ([1]; first compound 1.265 µM) | relative viability ([1]; first compound 4 µM) | relative viability ([2]; first compound 0.08 µM) | relative viability ([2]; first compound 0.8 µM) | relative viability ([2]; first compound 2.53 µM) | relative viability ([2]; first compound 8 µM) | relative viability ([3]; first compound 0.04 µM) | relative viability ([3]; first compound 0.1265 µM) | relative viability ([3]; first compound 0.4 µM) | relative viability ([3]; first compound 1.265 µM) | relative viability ([3]; first compound 4 µM)
1 | HCC-15 | 1.25 | 1.08 | 1.09 | 1.01 | 1 | 0.698 | 0.613 | 0.623 | 0.612 | 0.514 | 0.324 | 0.347 | 0.345 | 0.205 | 0.844 | 0.817 | 0.933 | 0.997 | 0.868
2 | HCC-44 | 0.934 | 0.938 | 0.912 | 0.936 | 0.999 | 0.862 | 0.981 | 0.971 | 0.893 | 0.92 | 0.923 | 1.58 | 1.32 | 1.06 | 1.16 | 1.07 | 1.02 | 1.16 | 0.82
3 | HCC-78 | 0.485 | 0.436 | 0.548 | 0.416 | 0.62 | 0.772 | 0.782 | 0.83 | 0.725 | 0.62 | – | – | – | – | 0.533 | 0.425 | 0.622 | 0.706 | 0.618
4 | HCC-366 | 1.08 | 1.03 | 1.1 | 0.995 | 1.01 | 0.323 | 0.331 | 0.353 | 0.405 | 0.343 | – | – | – | – | 0.385 | 0.306 | 0.486 | 0.181 | 0.398
5 | IA-LM | 0.925 | 0.803 | 0.777 | 0.867 | 0.977 | – | – | – | – | – | – | – | – | – | 1.23 | 0.835 | 1.33 | 1.37 | 1.23
6 | LK-2 | – | – | – | – | – | 0.351 | 0.287 | 0.359 | 0.237 | 0.352 | 0.176 | 0.19 | 0.214 | 0.226 | 0.198 | 0.275 | 0.222 | 0.17 | 0.302
7 | NCI-H358 | – | – | – | – | – | 0.232 | 0.222 | 0.191 | 0.19 | 0.207 | 0.478 | 0.279 | 0.369 | 0.388 | 0.692 | 0.781 | 0.784 | 0.642 | 0.614
8 | NCI-H522 | – | – | – | – | – | 0.704 | 0.683 | 0.727 | 0.694 | 0.715 | 1.06 | 1.4 | 0.948 | 1.21 | 0.921 | 0.907 | 0.892 | 0.913 | 0.753
9 | NCI-H1299 | 1.03 | 1.02 | 1.07 | 1.08 | 1.13 | – | – | – | – | – | – | – | – | – | – | – | – | – | –
10 | NCI-H1395 | – | – | – | – | – | 0.712 | 0.697 | 0.725 | – | 0.642 | 0.771 | 0.692 | 0.563 | 0.764 | 0.622 | 0.772 | 0.704 | – | 0.796
11 | NCI-H1563 | 0.957 | 0.859 | 0.917 | 0.829 | 0.945 | – | – | – | – | – | 0.536 | 0.497 | 0.518 | 0.494 | – | – | – | – | –
12 | NCI-H1623 | – | – | – | – | – | – | – | – | – | – | 0.401 | 0.5 | 0.564 | 0.551 | – | – | – | – | –
13 | NCI-H1648 | – | – | – | – | – | 0.746 | 0.545 | 0.762 | 0.754 | 0.815 | – | – | – | – | 0.623 | 0.81 | 0.754 | 0.952 | 0.899
14 | NCI-H1703 | 0.328 | 0.326 | 0.293 | 0.377 | 0.248 | – | – | – | – | – | – | – | – | – | – | – | – | – | –
15 | NCI-H1792 | 0.98 | 1.08 | 0.937 | 0.882 | 0.982 | 0.571 | 0.558 | 0.489 | 0.675 | 0.462 | 0.43 | 0.414 | 0.636 | 0.483 | – | – | – | – | –
16 | NCI-H1793 | – | – | – | – | – | 0.506 | 0.556 | 0.547 | – | 0.463 | 0.197 | 0.169 | 0.182 | 0.186 | 0.894 | 0.905 | 0.991 | – | 1.01
17 | NCI-H1944 | – | – | – | – | – | 0.524 | 0.425 | 0.458 | 0.495 | 0.404 | 0.665 | 0.691 | 0.81 | 0.693 | 0.56 | 0.553 | 0.616 | 0.491 | 0.582
18 | NCI-H2170 | – | – | – | – | – | 0.497 | 0.467 | 0.489 | 0.517 | 0.429 | 0.534 | 0.739 | 0.737 | 0.567 | 0.854 | 0.886 | 0.902 | 0.771 | 0.846
19 | NCI-H2228 | 1.11 | 0.948 | 1.08 | 0.801 | 0.721 | – | – | – | – | – | 0.121 | 0.162 | 0.189 | 0.161 | 0.832 | 0.576 | 0.638 | 0.976 | 0.56
20 | NCI-H2342 | – | – | – | – | – | 0.758 | 0.624 | 0.809 | 0.798 | 0.746 | 0.716 | 0.781 | 0.888 | 0.857 | 0.772 | 0.744 | 0.704 | 0.869 | 0.731
21 | SK-MES-1 | – | – | – | – | – | 0.341 | 0.309 | 0.32 | 0.322 | 0.314 | 0.716 | 0.82 | 0.736 | 0.613 | 1.04 | 1.05 | 1.11 | 1.2 | 1.17
22 | SW 900 | – | – | – | – | – | 0.412 | 0.43 | 0.43 | 0.509 | 0.421 | 0.187 | 0.172 | 0.165 | 0.168 | 0.716 | 0.54 | 0.738 | 0.884 | 0.877
